Experimental data: the Deep4Chem optical property database
Values joined by “and” are separate entries in the source; they are usually repeats but may differ in a detail not shown here. Identical values can stand only once. Blank lines part the entries; values can stand above or below the compound they belong to.

Test: solvent given as SMILES

SMILES: C(#Cc1ccc(-n2c3ccccc3c3ccccc32)cc1)c1ccccc1
fluorescence lifetime (in CC#N): 4.36 ns | fluorescence lifetime (in CCCCC): 2.6 ns | fluorescence lifetime (in CO): 3.7 ns | fluorescence lifetime (in Cc1ccccc1): 1.45 ns | fluorescence lifetime (in ClC(Cl)Cl): 1.59 ns | fluorescence lifetime (in ClCCl): 2.53 ns

SMILES: C=Cc1cc2ccc(N(CC)CC)cc2oc1=O
fluorescence lifetime (in CC#N): 2.84 ns

SMILES: CN(C)c1ccc2nc3c(cc2c1)c(-c1ccccc1)nn3-c1ccccc1
fluorescence lifetime (in C1CCCCC1): 16.1 ns | fluorescence lifetime (in C1CCOC1): 21 ns | fluorescence lifetime (in CC#N): 24.5 ns | fluorescence lifetime (in CC(C)=O): 23.4 ns | fluorescence lifetime (in CCCCCl): 20.1 ns | fluorescence lifetime (in CCCCOCCCC): 18.4 ns | fluorescence lifetime (in CN(C)C=O): 22.3 ns

SMILES: [O-][n+]1c(/C=C/c2ccccc2)nc(N2CCOCC2)c2c1CCCC2
fluorescence lifetime (in ClCCl): 9.2 ns

SMILES: c1ccc2c(c1)[nH]c1ccccc12
fluorescence lifetime (in CC#N): 15.1 ns | fluorescence lifetime (in CCCCCC): 14.2 ns | fluorescence lifetime (in CCO): 16.1 ns

SMILES: O=C(O)CCCCCn1c2ccc(Br)cc2c(=O)c2cc(Br)ccc21
fluorescence lifetime (in O): 6 ns

SMILES: COc1ccc(C(=O)NN2C3=C(CC4=C2CCCC4=O)C(=O)CCC3)cc1
fluorescence lifetime (in CC#N): 6.2 ns | fluorescence lifetime (in CC(C)=O): 5.4 ns | fluorescence lifetime (in CCCCCO): 6.1 ns | fluorescence lifetime (in CO): 4.7 ns | fluorescence lifetime (in ClC(Cl)Cl): 6.2 ns | fluorescence lifetime (in ClCCl): 8.3 ns

SMILES: [NH3+]c1cc([NH3+])cc(-c2[nH+]c3ccccc3s2)c1
fluorescence lifetime (in O): 0.52 ns

SMILES: C1=CC2CC1C1C2[C@@]2(c3ccccc3)N=NC1(c1ccccc1)[C@@H]1C[C@H]12 (stereo not given in full)
fluorescence lifetime (in CC#N): 216 ns

SMILES: c1cc2cc(c1)c1ccc3ccc4ccc(cc4c3c1)c1ccc3ccc4ccc(cc4c3c1)c1cccc2c1
fluorescence lifetime (in Cc1ccccc1): 4.7 ns

SMILES: Cc1cc(C)c2nc3[nH]c(=O)[nH]c(=O)c3nc2c1
fluorescence lifetime (in CC#N): 1.65 ns

SMILES: [O-]c1ccccc1/C=N/c1ccccc1/N=C/c1ccccc1[O-]
fluorescence lifetime (in C1CCOC1): 0.0036 ns

SMILES: CC(C)c1cc(C(C)C)c(B2c3ccccc3Oc3cc(N4c5ccccc5C5(c6ccccc6-c6ccccc65)c5ccccc54)ccc32)c(C(C)C)c1
fluorescence lifetime (in Cc1ccccc1): 28 ns

SMILES: CSC1=C2C=C(c3cc4n(c3)[B-](F)(F)[N+]3=CC=CC3=C4c3c(C)cc(C)cc3C)C(C)=[N+]2[B-](F)(F)n2c(C)ccc21
fluorescence lifetime (in C1CCCCC1): 2.67 ns | fluorescence lifetime (in CC#N): 0.17 ns | fluorescence lifetime (in CC(C)=O): 0.39 ns | fluorescence lifetime (in CCOC(C)=O): 0.97 ns | fluorescence lifetime (in Cc1ccccc1): 1.81 ns

SMILES: Cc1cc(C)n2c1C=C1c3ccccc3C(c3ccc[nH]3)=[N+]1[B-]2(F)F
fluorescence lifetime (in C1CCOC1): 7.36 ns | fluorescence lifetime (in CC#N): 7.41 ns | fluorescence lifetime (in CCCCCC): 7.93 ns | fluorescence lifetime (in CO): 7.47 ns | fluorescence lifetime (in Cc1ccccc1): 6.82 ns | fluorescence lifetime (in ClCCl): 7.28 ns

SMILES: COc1cc(N(CC(=O)[O-])CC(=O)[O-])c2ncccc2c1
fluorescence lifetime (in O): 0.84 ns

SMILES: N#Cc1cccc(N)c1
fluorescence lifetime (in C1CCCCC1): 2.4 ns | fluorescence lifetime (in CC#N): 5.1 ns | fluorescence lifetime (in CCCCCC): 1.9 ns | fluorescence lifetime (in CCO): 6.2 ns | fluorescence lifetime (in O): 0.045 ns | fluorescence lifetime (in OCC(F)(F)F): 0.11 ns

The next lines start with the values.

fluorescence lifetime (in O): 17.1 ns
SMILES: CC(=O)Nc1ccc2c(c1)c(=O)c1ccccc1n2CCCCCC(=O)O

fluorescence lifetime (in C1CCOC1): 0.64 ns | fluorescence lifetime (in CCCCCC): 5.4 ns | fluorescence lifetime (in c1ccccc1): 2.14 ns
SMILES: O=C1OC(=O)c2ccc(N(c3ccccc3)c3c4ccccc4cc4ccccc34)c3cccc1c23

fluorescence lifetime (in ClC(Cl)Cl): 2.73 ns
SMILES: N#CC(C#N)=Cc1ccc(-c2ccc(N(c3ccccc3)c3ccccc3)cc2)o1

fluorescence lifetime (in C1CCOC1): 31 ns
SMILES: N#Cc1ccc(C=C(c2ccccc2)c2ccccc2)cc1

fluorescence lifetime (in CCO): 2.29 ns | fluorescence lifetime (in ClC(Cl)Cl): 4.16 ns | fluorescence lifetime (in O): 0.31 ns
SMILES: CCN(CC)c1ccc2c(c1)oc(=O)c1c(-c3ccccc3C(=O)O)c3ccc(=[N+](CC)CC)cc-3oc12

fluorescence lifetime (in CCO): 1.49 ns
SMILES: Cc1cc(-c2nnc(-c3c(C(C)C)cc(C(C)C)cc3C(C)C)o2)ccc1-n1c2ccccc2c2ccccc21

fluorescence lifetime (in CC#N): 2.13 ns
SMILES: CN(C)c1ccc(/C=C/c2nc3c4ccccc4c4ccccc4c3o2)cc1

fluorescence lifetime (in CN(C)C=O): 4.85 ns | fluorescence lifetime (in CO): 0.99 ns | fluorescence lifetime (in CS(C)=O): 0.16 ns | fluorescence lifetime (in O): 0.13 ns
SMILES: O=C1/C(=C2\Sc3ccc(S(=O)(=O)O)cc3C2=O)Sc2ccc(S(=O)(=O)O)cc21

fluorescence lifetime (in ClCCl): 2.67 ns
SMILES: O=[N+]([O-])c1cccc2c1ccc1[n+]2[B-](F)(F)n2c-1cc1c3ccccc3c3ccccc3c12

fluorescence lifetime (in C1CCOC1): 1.6 ns | fluorescence lifetime (in CN1CCCC1=O): 0.2 ns | fluorescence lifetime (in CN(C)C=O): 2.2 ns and 3.9 ns
SMILES: O=C1c2ccc3c4ccc5c6c(ccc(c7ccc(c2c37)C(=O)N1c1ccc(O)cc1)c64)C(=O)N(c1ccc(O)cc1)C5=O

fluorescence lifetime (in C1CCCCC1): 8.3 ns | fluorescence lifetime (in CO): 2.1 ns
SMILES: CC1(C)CC(/N=C/c2ccc3ccc4cccc5ccc2c3c45)CC(C)(C)N1[O]
